Test results from US10570179B2, “Substituted urea depsipeptide analogs as activators of the CLPP endopeptidase” (priority 2016, dated 2020).
Numbered stars: 1 amine (or outer) side, 2 acyl side, 3 side chain; on linkers, the order of the positions; unused ones are H or OH. Bridge positions count the residues as written; N and C are the ends. Square brackets hold non-standard residues; d marks the D form. Peptide text beside a SMILES is read from it. * marks the point of attachment. X5 = O=C([C@@H]1C[C@@H](OP(=O)(O)O)CN1[*:1])[*:2]; Phe(3,5-Me2) = Cc1cc(C)cc(C[C@H](N)C(=O)O)c1; Phe(3-Me) = Cc1cccc(C[C@H](N)C(=O)O)c1; NH(4-Cl-2-F-phenyl) = Fc1cc(Cl)ccc1N*; Pro(4R-Me) = C[C@H]1CN[C@H](C(=O)O)C1; X1 = O=C([C@@H]1CSCCN1[*:1])[*:2]; Hyp = O=C(O)[C@@H]1C[C@@H](O)CN1; NH(4-Et-phenyl) = CCc1ccc(N*)cc1; NH(4-Me-phenyl) = Cc1ccc(N*)cc1; aThr = C[C@H](O)[C@H](N)C(=O)O; Pip = O=C(O)[C@@H]1CCCCN1; 4Abz = Nc1ccc(C(=O)O)cc1; X3 = c1cc2c(cc1N*)OCCO2; CO = O=C([*:1])[*:2]

How the values were obtained:
[1] = Plasma protein binding, rapid equilibrium dialysis; type: in vitro ADME, human; settings: 10 μM
In short: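 Compound spiked at 10 μM (0.1% DMSO) into human plasma, dialysed against DPBS pH 7.4 across 8 K MWCO RED membrane for 4 h at 37 °C with shaking. Both chambers quantified by LC-MS against warfarin internal standard; % free = buffer/plasma concentration ×100, % bound = 100 − % free.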

[2] = Microsomal metabolic stability; type: in vitro ADME, human
[3] = test system: S. aureus ΔClpP; test: Minimal inhibitory concentration, microbroth dilution; type: cell-based, Staphylococcus aureus; settings: MIC; ClpP inactivated
In short: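 Growth inhibition was scored visually after overnight aerobic culture at 37 °C in CLSI-style microdilution plates. Inocula contained about 10^5 cfu/mL, and compound concentrations descended in twofold steps from 200 μM.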

[4] = plasma binding, % Bound, human plasma
[5] = microsomal metabolic stability half-life, human liver microsomes

Row | Structure (SMILES) | Human ([1]; human, 4 h, pH 7.4) | Human ([2]; human, pH 7.4) | Minimal Inhibitory Concentrations (μM) S. aureus ΔClpP [3] | Human [1, 4] | Human [2, 5]
1 | Cc1cccc(C[C@H](NC(=O)Nc2ccc3c(c2)OCCO3)C(=O)N[C@@H]2C(=O)N3C[C@H](O)C[C@H]3C(=O)N3CCCC[C@H]3C(=O)N[C@@H](C)C(=O)N3C[C@H](C)C[C@H]3C(=O)O[C@H]2C)c1 [Compound 28, (S)-2-(3-(2,3-DIHYDROBENZO[B][1,4]DIOXIN-6-YL)UREIDO)-N-((2R,6S,8AS,14AS,16R,20S,21S,23AS)-16-HYDROXY-2,6,21-TRIMETHYL-5,8,14,19,23-PENTAOXOOCTADECAHYDRO-1H,5H,14H,19H-PYRIDO[2,1-I]DIPYRROLO[2,1-C:2′,1′-L][1]OXA[4,7,10,13]TETRAAZACYCLOHEXADECIN-20-YL)-3-(M-TOLYL)PROPANAMIDE] ({X3-CO}-[Phe(3-Me)][aThr][Hyp][Pip]A[Pro(4R-Me)]; ester 2-C) | 92.9 ± 2.9% | 0.18 ± .185 h | >20 µM | – | –
2 | Cc1cccc(C[C@H](NC(=O)Nc2ccc(Cl)cc2F)C(=O)N[C@@H]2C(=O)N3C[C@H](O)C[C@H]3C(=O)N3CCSC[C@H]3C(=O)N[C@@H](C)C(=O)N3C[C@H](C)C[C@H]3C(=O)O[C@H]2C)c1 [Compound 41, (S)-2-(3-(4-CHLORO-2-FLUOROPHENYL)UREIDO)-N-((6AS,8R,12S,13S,15AS,17R,21S,23AR)-8-HYDROXY-13,17,21-TRIMETHYL-6,11,15,20,23-PENTAOXOOCTADECAHYDRO-6H,11H,15H-DIPYRROLO[2,1-C:2′,1′-L][1,4]THIAZINO[3,4-I][1]OXA[4,7,10,13]TETRAAZACYCLOHEXADECIN-12-YL)-3-(M-TOLYL)PROPANAMIDE] ({NH(4-Cl-2-F-phenyl)-CO}-[Phe(3-Me)][aThr][Hyp][X1]A[Pro(4R-Me)]; ester 2-C) | 99.7 ± 9.7% | 0.41 ± .413 h | >20 µM | – | –
3 | Cc1cccc(C[C@H](NC(=O)Nc2ccc(Cl)cc2F)C(=O)N[C@H]2COC(=O)[C@@H]3C[C@@H](C)CN3C(=O)[C@H](C)NC(=O)[C@@H]3CCCCN3C(=O)[C@@H]3CCCN3C2=O)c1 [Compound 8, (S)-2-(3-(4-CHLORO-2-FLUOROPHENYL)UREIDO)-N-((2R,6S,8AS,14AS,20S,23AS)-2,6-DIMETHYL-5,8,14,19,23-PENTAOXOOCTADECAHYDRO-1H,5H,14H,19H-PYRIDO[2,1-I]DIPYRROLO[2,1-C:2′,1′-L][1]OXA[4,7,10,13]TETRAAZACYCLOHEXADECIN-20-YL)-3-(M-TOLYL)PROPANAMIDE] | 98.2 ± 0.2% | 0.89 ± 0.13 h | >20 µM | – | –
4 | Cc1cccc(C[C@H](NC(=O)Nc2ccc(Cl)cc2F)C(=O)N[C@@H]2C(=O)N3C[C@H](OP(=O)(O)O)C[C@H]3C(=O)N3CCCC[C@H]3C(=O)N[C@@H](C)C(=O)N3C[C@H](C)C[C@H]3C(=O)O[C@H]2C)c1 [Compound 29, (2R,6S,8AS,14AS,16R,20S,21S,23AS)-20-((S)-2-(3-(4-CHLORO-2-FLUOROPHENYL)UREIDO)-3-(M-TOLYL)PROPANAMIDO)-2,6,21-TRIMETHYL-5,8,14,19,23-PENTAOXOOCTADECAHYDRO-1H,5H,14H,19H-PYRIDO[2,1-I]DIPYRROLO[2,1-C:2′,1′-L][1]OXA[4,7,10,13]TETRAAZACYCLOHEXADECIN-16-YL DIHYDROGEN PHOSPHATE] ({NH(4-Cl-2-F-phenyl)-CO}-[Phe(3-Me)][aThr][X5][Pip]A[Pro(4R-Me)]; ester 2-C) | – | – | >20 µM | 98.8 ± 8.8% | >4 h
5 | Cc1cccc(C[C@H](NC(=O)Nc2ccc(Cl)cc2F)C(=O)N[C@H]2COC(=O)[C@@H]3C[C@@H](C)CN3C(=O)[C@H](C)NC(=O)[C@@H]3CCCCN3C(=O)[C@@H]3C[C@@H](O)CN3C2=O)c1 [Compound 10] | 99.7 ± 0.2% | 0.29 ± 0.04 h | >20 µM | – | –
6 | Cc1cccc(C[C@H](NC(=O)Nc2ccc(Cl)cc2F)C(=O)N[C@@H]2C(=O)N3C[C@H](O)C[C@H]3C(=O)N3CCCC[C@H]3C(=O)N[C@@H](C)C(=O)N3C[C@H](C)C[C@H]3C(=O)O[C@H]2C)c1 [Compound 6, (S)-2-(3-(4-CHLORO-2-FLUOROPHENYL)UREIDO)-N-((2R,6S,8AS,14AS,16R,20S,21S,23AS)-16-HYDROXY-2,6,21-TRIMETHYL-5,8,14,19,23-PENTAOXOOCTADECAHYDRO-1H,5H,14H,19H-PYRIDO[2,1-I]DIPYRROLO[2,1-C:2′,1′-L][1]OXA[4,7,10,13]TETRAAZACYCLOHEXADECIN-20-YL)-3-(M-TOLYL)PROPANAMIDE] ({NH(4-Cl-2-F-phenyl)-CO}-[Phe(3-Me)][aThr][Hyp][Pip]A[Pro(4R-Me)]; ester 2-C) | 99.7 ± 0% | 4.83 ± 1.5 h | >20 µM | – | –
7 | CCc1ccc(NC(=O)N[C@@H](Cc2cccc(C)c2)C(=O)N[C@@H]2C(=O)N3C[C@H](O)C[C@H]3C(=O)N3CCCC[C@H]3C(=O)N[C@@H](C)C(=O)N3C[C@H](C)C[C@H]3C(=O)O[C@H]2C)cc1 [Compound 25, (S)-2-(3-(4-ETHYLPHENYL)UREIDO)-N-((2R,6S,8AS,14AS,16R,20S,21S,23AS)-16-HYDROXY-2,6,21-TRIMETHYL-5,8,14,19,23-PENTAOXOOCTADECAHYDRO-1H,5H,14H,19H-PYRIDO[2,1-I]DIPYRROLO[2,1-C:2′,1′-L][1]OXA[4,7,10,13]TETRAAZACYCLOHEXADECIN-20-YL)-3-(M-TOLYL)PROPANAMIDE] ({NH(4-Et-phenyl)-CO}-[Phe(3-Me)][aThr][Hyp][Pip]A[Pro(4R-Me)]; ester 2-C) | 99.2 ± 0.3% | 15.19 ± 2.47 h | >20 µM | – | –
8 | CCOC(=O)c1ccc(NC(=O)N[C@@H](Cc2cccc(C)c2)C(=O)N[C@@H]2C(=O)N3C[C@H](O)C[C@H]3C(=O)N3CCCC[C@H]3C(=O)N[C@@H](C)C(=O)N3C[C@H](C)C[C@H]3C(=O)O[C@H]2C)cc1 [Compound 36, ETHYL 4-(3-((S)-1-(((2R,6S,8AS,14AS,16R,20S,21S,23AS)-16-HYDROXY-2,6,21-TRIMETHYL-5,8,14,19,23-PENTAOXOOCTADECAHYDRO-1H,5H,14H,19H-PYRIDO[2,1-I]DIPYRROLO[2,1-C:2′,1′-L][1]OXA[4,7,10,13]TETRAAZACYCLOHEXADECIN-20-YL)AMINO)-1-OXO-3-(M-TOLYL)PROPAN-2-YL)UREIDO)BENZOATE] ({OEt-4Abz-CO}-[Phe(3-Me)][aThr][Hyp][Pip]A[Pro(4R-Me)]; ester 2-C) | – | – | >20 µM | 98.3 ± 8.3% | 4.81 ± .815 h
9 | Cc1cccc(C[C@H](NC(=O)Nc2ccc3c(c2)OCCO3)C(=O)N[C@@H]2C(=O)N3CCC[C@H]3C(=O)N3CCCC[C@H]3C(=O)N[C@@H](C)C(=O)N3C[C@H](C)C[C@H]3C(=O)O[C@H]2C)c1 [Compound 21, (S)-2-(3-(2,3-DIHYDROBENZO[B][1,4]DIOXIN-6-YL)UREIDO)-3-(M-TOLYL)-N-((2R,6S,8AS,14AS,20S,21S,23AS)-2,6,21-TRIMETHYL-5,8,14,19,23-PENTAOXOOCTADECAHYDRO-1H,5H,14H,19H-PYRIDO[2,1-I]DIPYRROLO[2,1-C:2′,1′-L][1]OXA[4,7,10,13]TETRAAZACYCLOHEXADECIN-20-YL)PROPANAMIDE] ({X3-CO}-[Phe(3-Me)][aThr]P[Pip]A[Pro(4R-Me)]; ester 2-C) | 97.3 ± 0.1% | 4.49 ± 0.68 h | >20 µM | – | –
10 | Cc1ccc(NC(=O)N[C@@H](Cc2cccc(C)c2)C(=O)N[C@@H]2C(=O)N3C[C@H](O)C[C@H]3C(=O)N3CCSC[C@H]3C(=O)N[C@@H](C)C(=O)N3C[C@H](C)C[C@H]3C(=O)O[C@H]2C)cc1 [Compound 42, (S)—N-((6AS,8R,12S,13S,15AS,17R,21S,23AR)-8-HYDROXY-13,17,21-TRIMETHYL-6,11,15,20,23-PENTAOXOOCTADECAHYDRO-6H,11H,15H-DIPYRROLO[2,1-C:2′,1′-L][1,4]THIAZINO[3,4-I][1]OXA[4,7,10,13]TETRAAZACYCLOHEXADECIN-12-YL)-3-(M-TOLYL)-2-(3-(P-TOLYL)UREIDO)PROPANAMIDE] ({NH(4-Me-phenyl)-CO}-[Phe(3-Me)][aThr][Hyp][X1]A[Pro(4R-Me)]; ester 2-C) | – | – | >20 µM | 98.1 ± 8.1% | 0.81 ± .813 h
11 | Cc1cc(C)cc(C[C@H](NC(=O)Nc2ccc(Cl)cc2F)C(=O)N[C@@H]2C(=O)N3CCC[C@H]3C(=O)N3CCCC[C@H]3C(=O)N[C@@H](C)C(=O)N3C[C@H](C)C[C@H]3C(=O)O[C@H]2C)c1 [Compound 4, (S)-2-(3-(4-CHLORO-2-FLUOROPHENYL)UREIDO)-3-(3,5-DIMETHYLPHENYL)-N-((2R,6S,8AS,14AS,20S,21S,23AS)-2,6,21-TRIMETHYL-5,8,14,19,23-PENTAOXOOCTADECAHYDRO-1H,5H,14H,19H-PYRIDO[2,1-I]DIPYRROLO[2,1-C:2′,1′-L][1]OXA[4,7,10,13]TETRAAZACYCLOHEXADECIN-20-YL)PROPANAMIDE] ({NH(4-Cl-2-F-phenyl)-CO}-[Phe(3,5-Me2)][aThr]P[Pip]A[Pro(4R-Me)]; ester 2-C) | 99.8 ± 0.2% | 0.94 ± 0.09 h | 25 µM | – | –
